Here are results for 13 molecules from patent US4994376A, “Detection of bacteroides gingivalis” (priority 1987, dated 1991).

“And” between values parts separate entries of the source, which are not always exact repeats. Equal values may be shown once. Read-outs that look alike come from different tables or passages of the source. Numbered stars: 1 amine (or outer) side, 2 acyl side, 3 side chain; on linkers, the order of the positions; unused ones are H or OH. Peptide text beside a SMILES is read from it. CO = O=C([*:1])[*:2]

For assay [1], the system named is B. gingivalis N-CBz-Gly-Gly-Arg peptidase. The assay is described as follows: Effect of inhibitors and enhancers on B. gingivalis peptidase activity. The class given is biochemical, Bacteroides gingivalis. To be noted: for Inhibition of B. gingivalis enzyme activity by metals: high concentrations.
Assay [2] has as its system B. levii. The class given is biochemical. The procedure:
(§1) The enzyme activity was measured by the chromogenic properties of N-CBz-glycyl-glycyl-L-arginine-β-naphthylamide which upon hydrolysis gives a visible color. The aminopeptidase activities listed in the table reflect the nanomoles of β-naphthylamine liberated after 60 minutes under the conditions described below.
(§2) After mixing, the solution is incubated for 1 hour at 37° C. and then 0.4 ml of a solution of stabilized diazonium salt, Fast Garnet GBC (0.5 mg/ml) in a 1M acetic acid buffer (pH 4.2), containing 10% Tween 20 was added to the mixture. After standing for 15 minutes at room temperature, the color reaction can be read manually by comparison with standard solutions or the absorbancy can be determined using a spectrophotometer at 525 nm. The reaction mixture without enzyme solution is used as a control.

Assay [3] has as its system B. mel. ss. intermedius. The class given is biochemical. As for the experimental part: as §1, §2
The subject of assay [4] is C. ochracea. The class given is biochemical. The procedure:
as §1, §2

Assay [5] has as its system Capnocytophaga gingivalis. The class given is biochemical. As for the experimental part: as §1, §2
Assay [6] concerns Capnocytophaga sp. The class given is biochemical. The procedure:
as §1, §2

The test system of assay [7] is B. corporis. Put plainly: Aminopeptidase activity on β-naphthylamide substrates. The class given is biochemical. The procedure:
as §1, §2

For assay [8], the system named is B. denticola. Described as above. The class given is biochemical. As for the experimental part: as §1, §2
Assay [9] has as its system B. intermedius. The description is as above. The class given is biochemical. As for the experimental part: as §1, §2
Assay [10] concerns B. melaninogenicus. The description is as above. The class given is biochemical. As for the experimental part:
as §1, §2

For assay [11], the system named is C. sputigena. The description is as above. The class given is biochemical. As for the experimental part:
as §1, §2

Assay [12] concerns "Anaerobic vibrio". The class given is biochemical. As for the experimental part: as §1, §2
(§3) The enzyme activity and the aminopeptidase activities were determined in the manner described above in regard to Table I.

Assay [13] concerns A. seminis. The class given is biochemical. The procedure: as §1, §2, §3
Assay [14] deals with A. viscosus. The class given is biochemical. As for the experimental part: as §1, §2, §3
Assay [15] relates to Actinomyces israeli. The class given is biochemical. As for the experimental part: as §1, §2, §3
In assay [16] the test system is Campylobacter sputorum. The class given is biochemical. The procedure: as §1, §2, §3
The subject of assay [17] is Eikenella corrodens. The class given is biochemical. The procedure: as §1, §2, §3
In assay [18] the test system is Fusobacterium nucleatum. The class given is biochemical. As for the experimental part:
as §1, §2, §3

For assay [19], the system named is S. mutans. The class given is biochemical. As for the experimental part:
as §1, §2, §3

Assay [20] deals with S. sanguis. The class given is biochemical. As for the experimental part:
as §1, §2, §3

Assay [21] has as its system Veillonella sp. The class given is biochemical. As for the experimental part: as §1, §2, §3
Assay [22] deals with A. equuli. The assay is described as follows: Aminopeptidase activity on β-naphthylamide substrates. The class given is biochemical. The procedure: as §1, §2, §3
Assay [23] relates to A. suis. The assay is described as above. The class given is biochemical. The procedure: as §1, §2, §3
Assay [24] concerns F. periodonticum. The description is as above. The class given is biochemical. The procedure:
as §1, §2, §3

Assay [25] has as its system L. fermentum. The assay is described as above. The class given is biochemical. As for the experimental part:
as §1, §2, §3

Assay [26] relates to S. salivarius. The description is as above. The class given is biochemical. As for the experimental part: as §1, §2, §3
The test system of assay [27] is Veillonella alcalesens. Described as above. The class given is biochemical. The procedure: as §1, §2, §3
For assay [28], the system named is Bacteroides gingivalis. The class given is biochemical. The procedure: as §1, §2
In assay [29] the test system is V. parvula. The class given is biochemical. The procedure: as §1, §2, §3
Assay [30] deals with Haemophilus aphrophilus. The assay is described as follows: Aminopeptidase activity on β-naphthylamide substrates. The class given is biochemical. The procedure: as §1, §2, §3
Assay [31] has as its system Lactobacillus casei. The description is as above. The class given is biochemical. The procedure:
as §1, §2, §3

[32] abbreviates: strain D31A-24, β-naphthylamine liberated after 60 minutes, 37° C.

As for `CC(=O)N[C@@H](CC(C)C)C(=O)N[C@@H](CC(C)C)C(=O)N[C@H](C=O)CCCNC(=N)N` [leupeptin], the “Inhibition of B. gingivalis N-CBz-glycyl-glycyl-arginylpeptidase enzyme activity” value in assay [1] is given as “inhibited”.

For the molecule `C[S+](C)[O-]` [DMSO, dimethyl-sulfoxide], the “Inhibition of B. gingivalis N-CBz-glycyl-glycyl-arginylpeptidase enzyme activity” value in assay [1] was “inhibited”.

In the case of `NCC(=O)N1CCC[C@H]1C(=O)O` [Gly-Pro, Glycyl-proline] (H-Gly-Pro-OH), the Aminopeptidase activity is 22 and 17 in assay [2]; 15 and 22 and 27 in [3]; 11 in [4]; 19 in assay [5]; 2 in assay [6]; 54 in assay [7]. Moreover, the Aminopeptidase activity in assay [8] was found to be 17; in [9], 10; in [10], 26; in assay [11] it was 16; in assay [12], 0; in assay [13], 0. Besides, the Aminopeptidase activity is 0 in [14]; 0 in [15]; 1 in [16]; 0 in [17]; 0 in assay [18]; 0 nmol in [18] (setting [32]). Moreover, the Aminopeptidase activity in assay [19] was 22; in [20], 75 and 109; in [21], 0; in assay [22], 0; in assay [23], 0; in [24], 1. Also, the Aminopeptidase activity in assay [25] was 5; in [26] it was 105 and 90; in assay [27] it was 0.

Take `[Co]` [cobalt]: in assay [1], the “Inhibition of B. gingivalis enzyme activity by metals” value (from here on “Inhibition … by metals”) is reported as “inhibited”.

`O=C(O)c1cc[c]([Hg][Cl])cc1` [p-chloromercuribenzoic acid]: the “Inhibition of B. gingivalis N-CBz-glycyl-glycyl-arginylpeptidase enzyme activity” value in [1] is recorded as “inhibited”.

In the case of `C[C@H](NC(=O)[C@@H](N)CCCCN)C(=O)O` [Lys-Ala, Lysyl-alanine] (H-Lys-Ala-OH), the Aminopeptidase activity in [2] was 45 and 48; in [28], 78 and 77 and 50 and 63 and 46 and 43; in assay [4], 50; in [5], 54; in assay [6], 14; in assay [7], 68. The Aminopeptidase activity in assay [8] came to 89; in assay [9], 50; in [10], 78; in assay [11], 36; in assay [12] it was 0; in assay [13] it was 0. Moreover, the Aminopeptidase activity in [14] came to 0; in assay [15] it was 0; in [16], 0; in [17], 0; in assay [18] (setting [32]) it was 0 nmol; in assay [19], 2. In addition, the Aminopeptidase activity in assay [29], in assay [21], in assay [22], in assay [23], in [24] and in [30] was 0 in each case. The Aminopeptidase activity in [25] is 2; in assay [31], 0; in assay [27], 0.

Take `CC(C)[C@H](NC(=O)[C@H](CCCNC(=N)N)NC(=O)N[C@@H](Cc1ccccc1)C(=O)O)C(=O)N[C@H](C=O)CCCNC(=N)N` [antipain] ({Phe-CO}-Arg-Val-Arg-aldehyde): the “Inhibition of B. gingivalis N-CBz-glycyl-glycyl-arginylpeptidase enzyme activity” value in [1] is “inhibited”.

With mercury, in assay [1], the “Sensitivity of B. gingivalis enzyme activity to heavy metal ions” value (“Sensitivity” for short) is on record as “sensitive” and the “Inhibition … by metals” value was “inhibited”.

For `O=S(=O)(F)Cc1ccccc1` [phenylmethylsulfonylfluoride], the “Inhibition of B. gingivalis N-CBz-glycyl-glycyl-arginylpeptidase enzyme activity” value in assay [1] is “inhibited”.

For the molecule `[Zn]` [zinc], the “Inhibition … by metals” value in assay [1] was “inhibited”.

With `N=C(N)NCCC[C@H](NC(=O)[C@@H](N)CCCNC(=N)N)C(=O)O` [Arg-Arg, Arginyl-arginine] (H-Arg-Arg-OH), the Aminopeptidase activity in [4] is 71; in [5], 65; in assay [6] it was 0; in assay [7] (strain ATCC 33547, β-naphthylamine liberated after 60 minutes, 37° C.), 4 nmol; in assay [8] (strain ATCC 33185, β-naphthylamine liberated after 60 minutes, 37° C.) it was 16 nmol; in assay [9] (strain ATCC 25611, β-naphthylamine liberated after 60 minutes, 37° C.), 15 nmol. For the same molecule, the Aminopeptidase activity in assay [10] (strain ATCC 25845, β-naphthylamine liberated after 60 minutes, 37° C.) is 24 nmol; in assay [11] (strain ATCC 33123, β-naphthylamine liberated after 60 minutes, 37° C.) it was 18 nmol; in assay [12], 0; in assay [13], 0; in assay [14] it was 0; in assay [15], 0. Moreover, the Aminopeptidase activity in assay [16] came out at 1; in assay [17] it was 0; in assay [18], 1; in [18] (setting [32]), 2 nmol; in assay [19], 1; in assay [29] it was 0. For the same molecule, the Aminopeptidase activity in assay [21] came to 0; in assay [22] (strain ATCC 19392, β-naphthylamine liberated after 60 minutes, 37° C.), 0 nmol; in [23] (strain ATCC 15557, β-naphthylamine liberated after 60 minutes, 37° C.) it was 0 nmol; in [24] (strain EK1-15, β-naphthylamine liberated after 60 minutes, 37° C.) it was 1 nmol; in [30] (strain ATCC 13252, β-naphthylamine liberated after 60 minutes, 37° C.), 1 nmol; in [30] (strain ATCC 19415, β-naphthylamine liberated after 60 minutes, 37° C.) it was 1 nmol. In addition, the Aminopeptidase activity in [30] (strain NCTC 5908, β-naphthylamine liberated after 60 minutes, 37° C.) was determined as 0 nmol; in assay [25] (strain ATCC 11581, β-naphthylamine liberated after 60 minutes, 37° C.) it was 0 nmol; in assay [31] (strain ATCC 7469, β-naphthylamine liberated after 60 minutes, 37° C.) it was 1 nmol; in assay [31] (strain ATCC 11578, β-naphthylamine liberated after 60 minutes, 37° C.) it was 1 nmol; in assay [31] (strain ATCC 11582, β-naphthylamine liberated after 60 minutes, 37° C.), 0 nmol; in [26] (strain ATCC 9759, β-naphthylamine liberated after 60 minutes, 37° C.), 24 nmol. The Aminopeptidase activity was determined as 15 nmol in assay [26] (strain ATCC 25975, β-naphthylamine liberated after 60 minutes, 37° C.) and 0 nmol in assay [27] (strain ATCC 11748, β-naphthylamine liberated after 60 minutes, 37° C.).

In the case of `[Cu]` [copper], in assay [1], the “Sensitivity” value is listed as “sensitive” and the “Inhibition … by metals” value is recorded as “inhibited”.

As for `[Cd]` [cadmium], in [1], the “Sensitivity” value is given as “sensitive” and the “Inhibition … by metals” value is “inhibited”.
